Data taken from article PMC6968633, “Synthesis, antibacterial and anticancer activity, and docking study of aminoguanidines containing an alkynyl moiety” (Journal of Enzyme Inhibition and Medicinal Chemistry, 2019).
Converted amounts (≈) assume the structure as drawn.

Tests used:
L02 = experiment: Cytotoxicity, CCK-8 assay, normal cell line; assay type: cell-based; conditions: L02 normal human hepatocytes, 48 h
Method: (§1) A lung cancer cell line (A549), gastric cancer cell line (SGC7901) and human hepatocytes (L02) were used to test the anticancer activity and cytotoxicity of the new compounds. 5-Fluorouracil (5-FU) was used as the positive control against cancer cell lines. The A549, SGC7901 and L02 cells were grown in Dulbecco’s modified Eagle’s medium (DMEM) supplemented with 10% foetal bovine serum (FBS) and antibiotics (100 U/mL penicillin-streptomycin). Cells at 80–90% confluence were split by trypsin (0.25% in PBS; pH 7.4), and the medium was changed at 24 h intervals. The cells were cultured at 37 °C in a 5% CO2 incubator. The cells were passaged three times, then approximately 1 × 10^4 cells were seeded into each well of a 96-well plate and allowed to incubate to allow attachment of the cells to the surface. After 24 h, the medium was replaced with DMEM supplemented with 10% FBS containing various concentrations (0.1, 0.3, 1, 3, 10, and 30 μg/mL) of test compounds. Each concentration was tested in triplicate. After 48 h treatment, 20 µL of CCK-8 solution was added to each well and the optical density measured at 450 nm after 3 h using a microplate reader. The IC50 values were defined as the concentrations inhibiting 50% of cell growth.

SGC7901 = experiment: Cytotoxicity, CCK-8 assay; assay type: cell-based; conditions: Homo sapiens, SGC-7901, SGC7901 gastric cancer cells, 48 h
Method: as §1

A549 = experiment: Cytotoxicity, CCK-8 assay; assay type: cell-based; conditions: Homo sapiens, A549 lung cancer cells, 48 h
Method: as §1

[1] = tested on: Staphyiococcus aureus CMCC 25923; experiment: Antibacterial MIC, serial dilution; assay type: cell-based, Staphylococcus aureus; conditions: Staphylococcus aureus, CMCC25923; S. aureus CMCC 25923, 24 h, 37 °C; read-out: MIC
Method: (§2) Test bacteria were grown to mid-log phase in Mueller–Hinton broth (MHB) or Tryptone Soya Broth (TSB) and diluted 1000-fold in the same medium. Bacteria (10^5 CFU/mL) were inoculated into MHB or TSB and dispensed at 0.2 ml/well into a 96-well microtiter plate. As positive controls, gatifloxacin, moxifloxacin, norfloxacin, oxacillin, and penicillin were used. […] Bacterial growth was determined by measuring the absorption at 630 nm using a microplate reader. All experiments were carried out three times.
(§3) The evaluation of antibacterial activity of all compounds (3a–3j and 6a–6k) was performed by a serial dilution method to determine the MIC against a panel of pathogens comprising five Gram-positive strains (S. aureus (CMCC(B) 26003 and CMCC 25923), Streptococcus mutans BNCC 336931, Enterococcus faecalis CMCC 29212, and Bacillus subtilis CMCC 63501), four Gram-negative strains (E. coli (CMCC 25922 and CMCC 44568) and P. aeruginosa (CMCC 27853 and CMCC 10104)), as well as three methicillin-resistant clinical isolates (S. aureus ATCC 43300 and ATCC 33591, P. aeruginosa ATCC BAA-2111). The results are described in Tables 1 and 2. Gatifloxacin, moxifloxacin, norfloxacin, oxacillin, and penicillin were used as positive controls.

[2] = tested on: Staphylococcus aureus ATCC 33591; experiment: Antibacterial MIC, multidrug-resistant clinical isolate; assay type: cell-based; conditions: Staphylococcus aureus, ATCC33591; multidrug-resistant S. aureus ATCC 33591; read-out: MIC
Method: as §2, §3

[3] = tested on: Staphylococcus aureus ATCC 43300; experiment: as above; assay type: cell-based; conditions: Staphylococcus aureus, ATCC43300; multidrug-resistant S. aureus ATCC 43300; read-out: MIC
Method: as §2, §3

[4] = tested on: Escherichia coli CMCC 44568; experiment: Antibacterial MIC, serial dilution; assay type: cell-based; conditions: Escherichia coli, CMCC44568; E. coli CMCC 44568, 24 h, 37 °C; read-out: MIC
Method: as §2, §3

[5] = tested on: Bacillus subtilis CMCC 63501; experiment: Antibacterial MIC, serial dilution; assay type: cell-based; conditions: Bacillus subtilis, CMCC63501; B. subtilis CMCC 63501, 24 h, 37 °C; read-out: MIC
Method: as §2, §3

[6] = tested on: Pseudomonas aeruginosa CMCC 10104; experiment: Antibacterial MIC, serial dilution; assay type: cell-based; conditions: Pseudomonas aeruginosa, CMCC10104; P. aeruginosa CMCC 10104, 24 h, 37 °C; read-out: MIC
Method: as §2, §3

[7] = tested on: Escherichia coli CMCC 25922; experiment: Antibacterial MIC, serial dilution; assay type: cell-based; conditions: Escherichia coli, CMCC25922; E. coli CMCC 25922, 24 h, 37 °C; read-out: MIC
Method: as §2, §3

[8] = tested on: Enterococcus faecalis CMCC 29212; experiment: Antibacterial MIC, serial dilution; assay type: cell-based; conditions: Enterococcus faecalis, CMCC29212; E. faecalis CMCC 29212, 24 h, 37 °C; read-out: MIC
Method: as §2, §3

[9] = tested on: Pseudomonas aeruginosa CMCC 27853; experiment: Antibacterial MIC, serial dilution; assay type: cell-based; conditions: Pseudomonas aeruginosa, CMCC27853; P. aeruginosa CMCC 27853, 24 h, 37 °C; read-out: MIC
Method: as §2, §3

[10] = tested on: Streptococcus mutans BNCC 336931; experiment: Antibacterial MIC, serial dilution; assay type: cell-based; conditions: Streptococcus mutans, BNCC336931; S. mutans BNCC 336931, 24 h, 37 °C; read-out: MIC
Method: as §2, §3

[11] = tested on: Staphylococcus aureus CMCC(B)26003; experiment: Antibacterial MIC, serial dilution; assay type: cell-based; conditions: Staphylococcus aureus; S. aureus CMCC(B)26003, 24 h, 37 °C; read-out: MIC
Method: as §2, §3

[12] = tested on: Pseudomonas aeruginosa ATCC BAA-2111; experiment: Antibacterial MIC, multidrug-resistant clinical isolate; assay type: cell-based; conditions: ATCCBAA2111, multidrug-resistant P. aeruginosa ATCC BAA-2111
Method: as §2, §3

SMILES | IC50 (L02) | IC50 (SGC7901) | IC50 (A549) | MIC [1] | melting point | MIC [2] | MIC [3] | MIC [4] | MIC [5] | MIC [6] | MIC [7] | MIC [8] | MIC [9] | MIC [10] | MIC [11] | MIC [12]
O=c1[nH]cc(F)c(=O)[nH]1 [5-Fluorouracil, reference compound] | 8.44 µg/mL (≈ 64.9 µM) | 2.56 µg/mL (≈ 19.7 µM) | 0.88 µg/mL (≈ 6.77 µM) | – | – | – | – | – | – | – | – | – | – | – | – | –
N=C(N)NN=Cc1ccc(C#Cc2ccccc2Cl)cc1 [Compound 3e, 2-(4-((2-Chlorophenyl)ethynyl)benzylidene)hydrazine-1-carboximidamide] | 12.4 µg/mL (≈ 41.9 µM) | 0.45 µg/mL (≈ 1.52 µM) | 4.57 µg/mL (≈ 15.4 µM) | 2 µg/mL (≈ 6.74 µM) | 200 to 203 °C | 0.5 µg/mL (≈ 1.68 µM) | 2 µg/mL (≈ 6.74 µM) | 8 µg/mL (≈ 27 µM) | 1 µg/mL (≈ 3.37 µM) | 4 µg/mL (≈ 13.5 µM) | 2 µg/mL (≈ 6.74 µM) | 0.5 µg/mL (≈ 1.68 µM) | > 128 µg/mL | 2 µg/mL (≈ 6.74 µM) | 0.5 µg/mL (≈ 1.68 µM) | –
N=C(N)NN=Cc1ccc(C#Cc2cccc(Cl)c2)cc1 [Compound 3f, 2-(4-((3-Chlorophenyl)ethynyl)benzylidene)hydrazine-1-carboximidamide] | 10.2 µg/mL (≈ 34.5 µM) | 0.3 µg/mL (≈ 1.01 µM) | 2.55 µg/mL (≈ 8.59 µM) | 1 µg/mL (≈ 3.37 µM) | 213 to 214 °C | – | – | 4 µg/mL (≈ 13.5 µM) | 0.5 µg/mL (≈ 1.68 µM) | 2 µg/mL (≈ 6.74 µM) | 2 µg/mL (≈ 6.74 µM) | 0.5 µg/mL (≈ 1.68 µM) | > 128 µg/mL | 2 µg/mL (≈ 6.74 µM) | 1 µg/mL (≈ 3.37 µM) | –
N=C(N)NN=Cc1ccc(C#Cc2cccc(Br)c2)cc1 [Compound 3i, 2-(4-((3-Bromophenyl)ethynyl)benzylidene)hydrazine-1-carboximidamide] | 19.6 µg/mL (≈ 57.5 µM) | 1.26 µg/mL (≈ 3.69 µM) | 4.03 µg/mL (≈ 11.8 µM) | 2 µg/mL (≈ 5.86 µM) | 223 to 225 °C | 0.5 µg/mL (≈ 1.47 µM) | 2 µg/mL (≈ 5.86 µM) | 2 µg/mL (≈ 5.86 µM) | 1 µg/mL (≈ 2.93 µM) | 2 µg/mL (≈ 5.86 µM) | 2 µg/mL (≈ 5.86 µM) | 1 µg/mL (≈ 2.93 µM) | > 128 µg/mL | 1 µg/mL (≈ 2.93 µM) | 1 µg/mL (≈ 2.93 µM) | –
N=C(N)NN=Cc1ccc(C#Cc2ccc(Br)cc2)cc1 [Compound 3j, 2-(4-((4-Bromophenyl)ethynyl)benzylidene)hydrazine-1-carboximidamide] | – | – | – | 1 µg/mL (≈ 2.93 µM) | 242 to 243 °C | 0.5 µg/mL (≈ 1.47 µM) | 2 µg/mL (≈ 5.86 µM) | 128 µg/mL (≈ 375 µM) | 128 µg/mL (≈ 375 µM) | 128 µg/mL (≈ 375 µM) | 2 µg/mL (≈ 5.86 µM) | 0.5 µg/mL (≈ 1.47 µM) | > 128 µg/mL | 0.5 µg/mL (≈ 1.47 µM) | 0.5 µg/mL (≈ 1.47 µM) | –
N=C(N)NN=Cc1ccc(C#CC#Cc2ccccc2F)cc1 [Compound 6b, 2-(4-((2-Fluorophenyl)buta-1,3-diyn-1-yl)benzylidene)hydrazine-1-carboximidamide] | 18 µg/mL (≈ 59.1 µM) | 1.37 µg/mL (≈ 4.5 µM) | 2.22 µg/mL (≈ 7.29 µM) | 1 µg/mL (≈ 3.29 µM) | 218 to 220 °C | 1 µg/mL (≈ 3.29 µM) | 8 µg/mL (≈ 26.3 µM) | 128 µg/mL (≈ 421 µM) | 4 µg/mL (≈ 13.1 µM) | 128 µg/mL (≈ 421 µM) | 8 µg/mL (≈ 26.3 µM) | 0.5 µg/mL (≈ 1.64 µM) | > 128 µg/mL | 0.5 µg/mL (≈ 1.64 µM) | 0.25 µg/mL (≈ 0.821 µM) | –
N=C(N)NN=Cc1ccc(C#CC#Cc2ccccc2Cl)cc1 [Compound 6e, 2-(4-((2-Chlorophenyl)buta-1,3-diyn-1-yl)benzylidene)hydrazine-1-carboximidamide] | 14.8 µg/mL (≈ 46.1 µM) | 1.48 µg/mL (≈ 4.61 µM) | 3.62 µg/mL (≈ 11.3 µM) | 128 µg/mL (≈ 399 µM) | 207 to 210 °C | 0.5 µg/mL (≈ 1.56 µM) | 8 µg/mL (≈ 24.9 µM) | 64 µg/mL (≈ 200 µM) | 4 µg/mL (≈ 12.5 µM) | 4 µg/mL (≈ 12.5 µM) | 8 µg/mL (≈ 24.9 µM) | 0.5 µg/mL (≈ 1.56 µM) | > 128 µg/mL | 1 µg/mL (≈ 3.12 µM) | 0.25 µg/mL (≈ 0.779 µM) | –
Cc1cccc(C#CC#Cc2ccc(C=NNC(=N)N)cc2)c1 [Compound 6k, 2-(4-(m-Tolylbuta-1,3-diyn-1-yl)benzylidene)hydrazine-1-carboximidamide] | 14.8 µg/mL (≈ 49.2 µM) | 0.55 µg/mL (≈ 1.83 µM) | 3.58 µg/mL (≈ 11.9 µM) | 32 µg/mL (≈ 107 µM) | 202 to 204 °C | – | – | 128 µg/mL (≈ 426 µM) | 2 µg/mL (≈ 6.66 µM) | 4 µg/mL (≈ 13.3 µM) | 4 µg/mL (≈ 13.3 µM) | 0.5 µg/mL (≈ 1.66 µM) | > 128 µg/mL | 0.5 µg/mL (≈ 1.66 µM) | 1 µg/mL (≈ 3.33 µM) | –
COc1c(N2CCNC(C)C2)c(F)cc2c(=O)c(C(=O)O)cn(C3CC3)c12 (centres unmarked) [Gatifloxacin, reference compound] | – | – | – | 0.125 µg/mL (≈ 0.333 µM) | – | 0.25 µg/mL (≈ 0.666 µM) | 0.5 µg/mL (≈ 1.33 µM) | 0.125 µg/mL (≈ 0.333 µM) | 2 µg/mL (≈ 5.33 µM) | 2 µg/mL (≈ 5.33 µM) | 0.125 µg/mL (≈ 0.333 µM) | 1 µg/mL (≈ 2.66 µM) | 2 µg/mL (≈ 5.33 µM) | 1 µg/mL (≈ 2.66 µM) | 0.125 µg/mL (≈ 0.333 µM) | 1 µg/mL (≈ 2.66 µM)
